# Results from article PMC5866846 (Archives of Toxicology, 2017).
# Read-outs that look alike come from different tables or passages of the source.
# Experiments:
# [1] = test system: CYP1A2, 2C19, 2C9, 2B6, 3A4 and 2C8; test: CYP activity in upcyte hepatocytes after treatment, all tested CYP isoenzymes together; format: cell-based, human
# Method: (§1) Cells were cultivated in hepatocyte culture medium at 37 °C and 5 °% CO2 in a humidified incubator. Before starting experiments, cells were cultivated in hepatocyte culture medium containing 0.5% (v/v) DMSO (Preculture medium) for 5 days (density of 0.8 × 10^4 cells/cm^2) and were subcultivated in high-performance medium containing 0.1% (v/v) DMSO (Metabolism conditioning medium) for 3–5 days (density of 1.6 × 10^5 cells/cm^2, confluence). The medium was replaced every 2–3 days.
# (§2) In HLM and supersome™ incubations the formation rate is given as nmol µg^−1 min^−1 and fmol pmol^−1 min^−1, respectively, and was calculated as the mean ± SD. […] The intrinsic Clearance (Clint) was given as Vmax/Km ratio. […] Activity of CYP enzymes in induction assays is given as the fold-change (mean ± SD) compared to the corresponding DMSO-treated control. […] Gene expression patterns of treated cells are given as fold-change compared to the corresponding DMSO-treated control samples, as described above. […] In induction and inhibition experiments corresponding EC50 and IC50 values were calculated by nonlinear regression. In all experiments a level of probability (p) ≤ 0.05 for statistical testing was considered significant.
# CYP2C9 [2] = biological target: T1, CYP2C9 (Homo sapiens, UniProt P11712); test: CYP2C9 activity in upcyte hepatocytes after treatment (probe substrate cocktail); format: cell-based; design: host or cells: upcyte hepatocytes 653-03 and 653-03 #138 (653-03 2D6); details: human, probe tolbutamide 100 µM, 5 µM
# Method: as §1, §2
# (§3) As control 0.05 % DMSO was used. The basal CYP activity and induction of CYP activity compared to the DMSO control were measured via HPLC-ESI-MS/MS.
# CYP2C8 [3] = biological target: T2, CYP2C8 (Homo sapiens, UniProt P10632); test: Inhibition of CYP2C8 activity in HLM; format: in vitro ADME; details: 200 nM to 10 µM, 10 min pre-incubation
# T2 sequence (P10632 1-490): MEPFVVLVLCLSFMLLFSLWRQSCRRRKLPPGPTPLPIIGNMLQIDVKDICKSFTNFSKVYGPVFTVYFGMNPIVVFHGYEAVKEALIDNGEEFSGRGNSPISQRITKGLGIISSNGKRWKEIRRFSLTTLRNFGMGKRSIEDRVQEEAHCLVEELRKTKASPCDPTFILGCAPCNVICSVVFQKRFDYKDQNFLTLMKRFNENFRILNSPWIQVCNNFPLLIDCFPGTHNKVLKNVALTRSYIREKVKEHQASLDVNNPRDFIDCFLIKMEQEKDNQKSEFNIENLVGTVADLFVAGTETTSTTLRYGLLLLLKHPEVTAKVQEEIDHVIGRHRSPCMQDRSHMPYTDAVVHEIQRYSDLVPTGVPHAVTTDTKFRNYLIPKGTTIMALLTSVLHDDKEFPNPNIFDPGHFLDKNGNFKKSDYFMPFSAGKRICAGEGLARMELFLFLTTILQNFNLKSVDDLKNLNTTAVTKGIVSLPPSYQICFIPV
# CYP2C19 [4] = biological target: T3, CYP2C19 (Homo sapiens, UniProt P33261); test: CYP2C19 activity in upcyte hepatocytes after treatment (probe substrate cocktail); format: cell-based; design: host or cells: upcyte hepatocytes 653-03 and 653-03 #138 (653-03 2D6); details: human, probe S-mephenytoin 100 µM, 5 µM
# Method: as §1, §2, §3
# CYP2C8 [5] = biological target: T2, CYP2C8; test: CYP2C8 activity in upcyte hepatocytes after treatment (probe substrate cocktail); format: cell-based; design: host or cells: upcyte hepatocytes 653-03 and 653-03 #138 (653-03 2D6); details: human, upcyte hepatocytes 653-03 and 653-03 2D6, probe amodiaquine 5 µM, 5 µM, both cell lines
# Method: as §1, §2, §3
# CYP2C9 [6] = biological target: T1, CYP2C9; test: Inhibition of CYP2C9 activity in HLM; format: in vitro ADME; details: 200 nM to 10 µM, 10 min pre-incubation
# CYP2C19 [7] = biological target: T3, CYP2C19; test: Inhibition of CYP2C19 activity in HLM; format: in vitro ADME; details: 200 nM to 10 µM, 10 min pre-incubation
# GSTA2 gene expression = GSTA2 gene expression in upcyte hepatocytes (Fluidigm RT-PCR); format: cell-based, human; details: rifampicin 30 µM, 72 h
# Text: […]. […] […].
# […]. As control 0.05 % DMSO was used.
# ABCB1 gene expression = ABCB1 gene expression in upcyte hepatocytes (Fluidigm RT-PCR); format: cell-based, human; details: rifampicin 30 µM, 72 h
# Text: Total RNA was isolated from cells using the Direct-zol™ RNA MiniPrep kit (Zymo Research Corp., Irvine, California). cDNA was synthesized using TaqMan Reverse Transcription Reagents (Life technologies, Applera GmbH, Darmstadt, Germany) and the expression of 25 genes representative of phase I and phase II drug metabolism and transport was quantified by Fluidigm’s BioMark HD high-throughput quantitative chip platform (Fluidigm Corporation, San Francisco, USA). For relative gene expression analysis, the delta-delta-Ct (ΔΔCt) method was used: the Ct values of the target mRNA were first normalized to those of the endogenous control glyceraldehyde-3-phosphate dehydrogenase (GAPDH) followed by dividing values of experimental samples by their corresponding DMSO-treated controls to calculate the x-fold changes of mRNA expression.
# In HLM and supersome™ incubations the formation rate is given as nmol µg^−1 min^−1 and fmol pmol^−1 min^−1, respectively, and was calculated as the mean ± SD. […] The intrinsic Clearance (Clint) was given as Vmax/Km ratio. […] In induction and inhibition experiments corresponding EC50 and IC50 values were calculated by nonlinear regression. […]
# as §3
# [8] = Formation kinetics of Tam-Bis, (Z)- and (E)-Met E in HLM with increasing substrate concentrations; format: in vitro ADME, human; details: substrate 1 to 50 µM, Michaelis-Menten
# Method: The reaction was started by adding a NADPH regenerating system (5 mM MgCl2, 5 mM glucose-6-phosphate, 0.5 mM NADP^+ and 10 U glucose-6-phosphate-dehydrogenase in 100 mM sodium phosphate buffer pH 7.4) to the samples and immediately put in a 37 °C water bath for 30 min. The reaction was stopped with the same volume of acetonitrile (ACN) containing 1% of acetic acid together with the corresponding deuterated internal standards. Regarding incubations with Supersomes™ containing UGTs, 5 µg of protein was incubated with 250 mM MgCl2 and 2.5 ng of alamethicin for 30 min on ice, followed by 10 min at 37 °C in a water bath. Subsequently, the Supersomes™ were incubated with 10 µM of substrates (Tam-Bis, (E)- and (Z)-Met E) and the glucuronidation was started by addition of 10 mM of uridine 5′-diphospho-glucuronic acid to the samples in a water bath at 37 °C for 30 min. The reaction was stopped as described above. Metabolites were analyzed by HPLC-ESI-MS/MS.
# For the assessment of formation kinetics of Tam-Bis, (E)- and (Z)-Metabolite E, HLM were incubated with increasing substrate concentrations ranging from 1 to 50 µM as described above. As control for each concentration a sample without NADPH-regenerating system was prepared. […]
# T3 sequence (P33261 whole entry): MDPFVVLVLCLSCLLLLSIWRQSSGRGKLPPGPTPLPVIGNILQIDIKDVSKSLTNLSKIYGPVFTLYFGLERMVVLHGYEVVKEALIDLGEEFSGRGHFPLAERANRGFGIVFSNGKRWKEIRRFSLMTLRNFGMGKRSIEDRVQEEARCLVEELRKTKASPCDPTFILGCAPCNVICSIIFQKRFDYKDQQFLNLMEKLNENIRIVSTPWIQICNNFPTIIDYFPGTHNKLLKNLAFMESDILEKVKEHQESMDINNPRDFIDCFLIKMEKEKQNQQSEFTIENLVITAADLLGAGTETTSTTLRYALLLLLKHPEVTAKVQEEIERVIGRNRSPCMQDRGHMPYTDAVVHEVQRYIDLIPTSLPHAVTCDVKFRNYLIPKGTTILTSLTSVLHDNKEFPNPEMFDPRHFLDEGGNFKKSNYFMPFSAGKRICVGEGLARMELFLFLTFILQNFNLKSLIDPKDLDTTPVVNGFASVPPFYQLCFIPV
# T1 sequence (P11712 whole entry): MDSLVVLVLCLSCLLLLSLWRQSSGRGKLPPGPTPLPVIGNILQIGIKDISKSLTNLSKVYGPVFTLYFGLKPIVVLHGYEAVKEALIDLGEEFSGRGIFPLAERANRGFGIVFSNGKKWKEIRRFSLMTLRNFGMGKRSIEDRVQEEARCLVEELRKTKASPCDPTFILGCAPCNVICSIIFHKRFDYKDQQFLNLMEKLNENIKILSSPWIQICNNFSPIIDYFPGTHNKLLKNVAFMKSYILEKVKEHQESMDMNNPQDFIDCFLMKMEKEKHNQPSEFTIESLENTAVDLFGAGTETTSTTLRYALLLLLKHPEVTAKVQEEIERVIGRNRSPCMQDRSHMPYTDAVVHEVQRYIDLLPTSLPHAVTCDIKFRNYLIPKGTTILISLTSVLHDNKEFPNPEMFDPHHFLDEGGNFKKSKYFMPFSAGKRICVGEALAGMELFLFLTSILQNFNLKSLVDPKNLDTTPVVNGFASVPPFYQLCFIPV
compound,measurement,setting,value
"CCC(=C(c1ccccc1)c1ccc(O)cc1)c1ccccc1 [Met E, 4-[1,2-diphenylbut-1-en-1-yl]phenol]",inhibitory effect on the tested CYP enzymes,"[1]; 5 µM, 72 h",did not act as CYP inhibitors
"CC/C(=C(\c1ccc(O)cc1)c1ccc(OCCN)cc1)c1ccccc1 [Norendox, N-didesmethyl-4-hydroxytamoxifen]","inhibition at 72 h, 5 µM",CYP2C9 [2],93%
same,IC50,CYP2C8 [3],2400 nM
same,"inhibition at 72 h, 5 µM",CYP2C19 [4],≤ 70%
same,"inhibition at 72 h, 5 µM",CYP2C8 [5],62.5%
same,IC50,CYP2C9 [6],210 nM
same,IC50,CYP2C19 [7],320 nM
"CO[C@H]1/C=C/O[C@@]2(C)Oc3c(C)c(O)c4c(O)c(c(/C=N/N5CCN(C)CC5)c(O)c4c3C2=O)NC(=O)/C(C)=C\C=C\[C@H](C)[C@H](O)[C@@H](C)[C@@H](O)[C@@H](C)[C@H](OC(C)=O)[C@@H]1C [Rifa, rifampicin]","GSTA2 gene expression, induction",GSTA2 gene expression,2.6 fold
same,"ABCB1 gene expression, induction",ABCB1 gene expression,1.7 fold
"CC/C(=C(\c1ccccc1)c1ccc(OCCN(C)C)cc1)c1ccccc1 [Tam, Tamoxifen, reference compound]","V max, (E)-Met E formation",[8],0.57 pmol/mg/min
same,"V max, (Z)-Met E formation",[8],9.2 pmol/mg/min
same,Km,"[8]; read-out: Km, (E)-Met E formation",11.5 µM
same,Km,"[8]; read-out: Km, (Z)-Met E formation",82.3 µM
"C[C@]12CC[C@@H]3c4ccc(O)cc4CC[C@H]3[C@@H]1CC[C@@H]2O [estradiol, reference compound]",impact on CYP activities,"[1]; 500 nM, 3 days",did not have an impact
